Measurements as given in patent publication US6716865B1, “Benzoxa- and benzthiazoles” (Novartis AG, priority 1999, dated 2004).

Legend:
[1] = biological target: T1, Purified human steroid sulfatase (Homo sapiens, UniProt P08842); assay: Steroid sulfatase inhibition in vitro (p-nitrocatechol sulfate cleavage)
T1 sequence (P08842 22-583): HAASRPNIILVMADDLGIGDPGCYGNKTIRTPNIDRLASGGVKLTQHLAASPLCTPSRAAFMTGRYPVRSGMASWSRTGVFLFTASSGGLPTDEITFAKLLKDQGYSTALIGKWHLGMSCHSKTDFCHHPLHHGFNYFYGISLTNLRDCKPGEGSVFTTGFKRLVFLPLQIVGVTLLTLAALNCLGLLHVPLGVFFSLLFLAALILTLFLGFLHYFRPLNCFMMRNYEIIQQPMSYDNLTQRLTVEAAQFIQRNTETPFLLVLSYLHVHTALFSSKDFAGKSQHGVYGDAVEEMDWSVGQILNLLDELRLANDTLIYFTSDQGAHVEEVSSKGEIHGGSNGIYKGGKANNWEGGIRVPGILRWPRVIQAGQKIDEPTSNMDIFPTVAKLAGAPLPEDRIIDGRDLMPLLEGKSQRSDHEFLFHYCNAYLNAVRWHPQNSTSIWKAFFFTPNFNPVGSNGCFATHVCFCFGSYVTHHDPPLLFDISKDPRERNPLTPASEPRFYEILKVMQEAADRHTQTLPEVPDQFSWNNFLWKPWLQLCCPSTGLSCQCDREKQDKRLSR
Experimental: Steroid sulfatase inhibition in vitro:
Purified human steroid sulfatase not only is capable of cleaving steroid sulfates, but also readily cleaves aryl sulfates, such as p-nitrocatechol sulfate which is used herein. Assay mixtures are prepared by consecutively dispensing the following solutions into the wells of flat-bottom microtiter plates:
1) 50 μl inhibitor dilution in buffer (=0.1 M Tris-HCl, ph 7.5, 0.1% Triton X-100);
2) 50 μl substrate (=20 mM p-nitrocatechol sulfate in buffer)
3) 50 μl enzyme dilution to give a final concentration of 75 nM steroid sulfatase.
Plates are incubated at 37° C. for 30 minutes. The assay is stopped by addition of 100 μl of 1 N NaOH, and optical density measured in a microplate reader at 492 nm. […] IC50 values are calculated by nonlinear regression of the concentration/optical density data using the program Grafit (Erithacus Ltd.). Reported values are the result of three determinations.
From the fluorescence intensity data (I) obtained at different concentrations (c) of the test compound, the concentration inhibiting the enzymatic activity at 50% (IC50) is calculated using the equation [formula]
Relative IC50 values (rel IC50) are defined as follows: [formula]

[2] = biological target: T2, CHO cells stably transfected with human steroid sulfatase (CHO/STS) (Homo sapiens, UniProt P08842); assay: Steroid sulfatase inhibition in the CHO/STS assay; type: cell-based; settings: assay 2, CHO/STS cells, overnight incubation, MUS substrate
T2 construct: expressed in transfected cells; host or cells: CHO cells, stably transfected
T2 sequence (P08842 22-583): T1 sequence (P08842 22-583)
Experimental: 2. Steroid sulfatase inhibition in the CHO/STS assay:
CHO cells stably transfected with human steroid sulfatase (CHO/STS) are seeded into microtiter plates. After reaching approximately 90% confluency, they are incubated overnight with graded concentrations of test substances. They are then fixed with 4% paraformaldehyde for 10 minutes at room temperature and washed 4 times with PBS before incubation with 100 μl/well 0.5 mM 4-methylumbelliferyl sulfate (MUS) dissolved in 0.1M Tris-HCl, pH 7.5. The enzyme reaction is carried out at 37° C. for one hour. Then 50 μl/well stop solution (1M Tris-HCl, pH 10.4) are added. The enzyme reaction solutions are transferred to white plates (Microfluor, Dynex, Chantilly, Va., USA) and read in a Fluoroskan II fluroescence microtiter plate reader. Reagent blanks are subtracted from all values. For drug testing, the fluorescence units (FU) are divided by the optical density readings after staining cellular protein with sulforhodamine B (OD550) in order to correct for variations in cell number. IC50 values are determined by linear interpolation between two bracketing points. In each assay with inhibitors, estrone 3-O-sulfamate is run as a reference compound, and the IC50 values are normalized to estrone 3-O-sulfamate:
relative IC50=IC50 compound/IC50 estrone 3-O-sulfamate.

NS(=O)(=O)Oc1ccc2nc(C=C3C4CC5CC(C4)CC3C5)oc2c1 [Example 12, sulfamic acid 2-(adamantan-2-ylidenemethyl)benzoxazol-6-yl ester]
IC50 [1]: ~0.97 µM
rel IC50 (IC50 compound/IC50 estrone 3-O-sulfamate) [2]: 1.25
